This note sets out measurements from ChEMBL document CHEMBL1138586 (Bioorg Med Chem Lett, 2009).

In one data set the target is Plasminogen (Homo sapiens, UniProt P00747). Put plainly: Inhibition of plasmin.
Data set [1] in a line: Half life in rat at 0.2 mg/kg, iv and 6 mg/kg, po. The class given is ADME, organism-based. The following applies: in vivo.
A short description of data set [2]: Oral bioavailability in rat at 6 mg/kg. The following applies: in vivo. The class given is ADME, organism-based.
Data set [3] can be described thus: Volume of distribution in rat at 0.2 mg/kg, iv and 6 mg/kg, po. The class given is ADME, organism-based. The following applies: in vivo.
Data set [4] can be described thus: Oral bioavailability in cynomolgus monkey at 1 mg/kg. The class given is ADME, organism-based, Macaca fascicularis. The following applies: in vivo.
Data set [5] can be described thus: Clearance in cynomolgus monkey at 0.1 mg/kg, iv and 1 mg/kg, po. The class given is ADME, organism-based, Macaca fascicularis. The following applies: in vivo.
Data set [6] can be described thus: Clearance in rat at 0.2 mg/kg, iv and 6 mg/kg, po. The class given is ADME, organism-based. The following applies: in vivo.
Data set [7] in a line: Clearance in Beagle dog at 0.1 mg/kg, iv and 1 mg/kg, po. The class given is ADME, organism-based, Canis lupus familiaris. The following applies: in vivo.
The target in data set [8] is T1, Voltage-gated inwardly rectifying potassium channel KCNH2 (Homo sapiens, UniProt Q12809).
T1 sequence (Q12809 whole entry): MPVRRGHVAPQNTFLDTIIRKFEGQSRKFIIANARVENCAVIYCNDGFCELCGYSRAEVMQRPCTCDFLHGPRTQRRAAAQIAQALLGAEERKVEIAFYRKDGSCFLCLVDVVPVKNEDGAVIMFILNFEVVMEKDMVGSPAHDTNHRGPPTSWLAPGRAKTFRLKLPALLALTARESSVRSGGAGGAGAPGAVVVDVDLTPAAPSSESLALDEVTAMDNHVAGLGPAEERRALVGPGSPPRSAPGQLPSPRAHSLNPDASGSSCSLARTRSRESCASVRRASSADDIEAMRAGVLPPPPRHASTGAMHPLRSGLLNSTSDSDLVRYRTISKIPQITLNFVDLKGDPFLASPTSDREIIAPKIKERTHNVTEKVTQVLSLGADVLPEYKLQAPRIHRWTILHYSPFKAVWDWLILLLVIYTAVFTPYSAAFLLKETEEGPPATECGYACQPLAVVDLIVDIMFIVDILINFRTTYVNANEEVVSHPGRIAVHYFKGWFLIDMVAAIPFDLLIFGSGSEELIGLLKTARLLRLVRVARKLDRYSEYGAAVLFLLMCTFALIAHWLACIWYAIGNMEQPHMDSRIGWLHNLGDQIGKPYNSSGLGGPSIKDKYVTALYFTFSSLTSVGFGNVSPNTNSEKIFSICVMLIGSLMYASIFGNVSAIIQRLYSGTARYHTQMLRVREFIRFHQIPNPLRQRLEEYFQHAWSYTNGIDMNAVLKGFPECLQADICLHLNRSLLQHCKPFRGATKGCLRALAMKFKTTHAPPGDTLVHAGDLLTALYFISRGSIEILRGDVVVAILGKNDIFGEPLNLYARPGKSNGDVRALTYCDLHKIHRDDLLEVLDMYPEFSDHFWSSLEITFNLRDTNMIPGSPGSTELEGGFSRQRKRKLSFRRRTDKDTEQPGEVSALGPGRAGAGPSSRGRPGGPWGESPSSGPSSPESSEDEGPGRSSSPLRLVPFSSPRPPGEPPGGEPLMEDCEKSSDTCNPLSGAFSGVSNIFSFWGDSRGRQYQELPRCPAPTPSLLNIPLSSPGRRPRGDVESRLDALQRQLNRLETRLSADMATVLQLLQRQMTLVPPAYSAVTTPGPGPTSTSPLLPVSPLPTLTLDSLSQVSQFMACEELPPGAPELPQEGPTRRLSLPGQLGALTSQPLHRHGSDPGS
The next data set concerns the target Prothrombin (Homo sapiens, UniProt P00734). The experiment in a line: Inhibition of thrombin.
Data set [9] deals with Tissue-type plasminogen activator (Homo sapiens, UniProt P00750). The experiment in a line: Inhibition of tissue plasminogen activator.
Tissue-type plasminogen activator, sequence (P00750 whole entry): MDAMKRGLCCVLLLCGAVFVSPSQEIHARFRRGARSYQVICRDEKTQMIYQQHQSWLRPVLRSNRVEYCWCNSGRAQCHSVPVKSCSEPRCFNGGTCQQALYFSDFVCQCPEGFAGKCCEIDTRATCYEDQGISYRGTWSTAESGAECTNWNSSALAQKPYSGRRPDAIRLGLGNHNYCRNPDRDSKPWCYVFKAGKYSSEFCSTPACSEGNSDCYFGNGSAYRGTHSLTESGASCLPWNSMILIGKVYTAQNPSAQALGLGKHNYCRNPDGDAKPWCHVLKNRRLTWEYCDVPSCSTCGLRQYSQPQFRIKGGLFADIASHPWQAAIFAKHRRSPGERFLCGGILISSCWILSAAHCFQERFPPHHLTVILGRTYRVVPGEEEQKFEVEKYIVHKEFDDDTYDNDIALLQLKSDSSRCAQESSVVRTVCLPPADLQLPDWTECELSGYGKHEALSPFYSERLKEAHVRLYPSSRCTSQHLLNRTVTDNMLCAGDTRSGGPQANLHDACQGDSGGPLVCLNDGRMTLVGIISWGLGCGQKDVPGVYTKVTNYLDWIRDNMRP
Data set [10] can be described thus: Half life in Beagle dog at 0.1 mg/kg, iv and 1 mg/kg, po. The class given is ADME, organism-based, Canis lupus familiaris. The following applies: in vivo.
Data set [11] in a line: AUC in Beagle dog at 1 mg/kg, po. The class given is ADME, organism-based, Canis lupus familiaris. More on the design: dose 1 mg/kg, route oral. The following applies: plasma.
Data set [12] concerns the target T1, Voltage-gated inwardly rectifying potassium channel KCNH2. The experiment in a line: Inhibition of human ERG expressed in HEK293 cells by patch-clamp method. The class given is cell-based.
Data set [13] in a line: Fraction unbound in human plasma at 10 uM after 30 mins. The class given is ADME, cell-free.
Data set [14] can be described thus: Oral bioavailability in Beagle dog at 1 mg/kg. The class given is ADME, organism-based, Canis lupus familiaris. The following applies: in vivo.
For data set [15], the target named is Vitamin K-dependent protein C (Homo sapiens, UniProt P04070). The experiment in a line: Inhibition of activated anticoagulant protein C.
Vitamin K-dependent protein C, sequence (P04070 43-197 limits assumed): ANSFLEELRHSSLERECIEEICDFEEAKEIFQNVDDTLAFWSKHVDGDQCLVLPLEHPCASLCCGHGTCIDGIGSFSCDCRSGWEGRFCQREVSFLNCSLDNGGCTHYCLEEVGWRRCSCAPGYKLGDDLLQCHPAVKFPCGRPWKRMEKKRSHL
Vitamin K-dependent protein C, sequence (P04070 212-461 limits assumed): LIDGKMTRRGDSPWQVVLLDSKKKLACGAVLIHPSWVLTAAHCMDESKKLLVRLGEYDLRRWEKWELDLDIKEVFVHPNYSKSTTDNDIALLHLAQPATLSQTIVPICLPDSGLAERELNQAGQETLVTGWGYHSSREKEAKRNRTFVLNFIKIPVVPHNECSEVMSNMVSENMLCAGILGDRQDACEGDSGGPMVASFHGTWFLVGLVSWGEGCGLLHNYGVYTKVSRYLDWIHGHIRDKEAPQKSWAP
Data set [16] can be described thus: AUC in rat at 6 mg/kg, po. The class given is ADME, organism-based. Also on record: dose 6 mg/kg, route oral. The following applies: plasma.
Data set [17] in a line: Volume of distribution in cynomolgus monkey at 0.1 mg/kg, iv and 1 mg/kg, po. The following applies: in vivo. The class given is ADME, organism-based, Macaca fascicularis.
Data set [18] in a line: Half life in cynomolgus monkey at 0.1 mg/kg, iv and 1 mg/kg, po. The class given is ADME, organism-based, Macaca fascicularis. The following applies: in vivo.
Data set [19] can be described thus: Inhibition of trypsin.
Data set [20] can be described thus: Volume of distribution in Beagle dog at 0.1 mg/kg, iv and 1 mg/kg, po. The class given is ADME, organism-based, Canis lupus familiaris. The following applies: in vivo.
The nature of data set [21]: Inhibition of kallikrein.
A short description of data set [22]: AUC in cynomolgus monkey at 1 mg/kg, po. The class given is ADME, organism-based, Macaca fascicularis. More on the design: dose 1 mg/kg, route oral. The following applies: plasma.
Data set [23] is described as follows: Oral bioavailability in Sprague-Dawley rat at 6 mg/kg. The class given is ADME, organism-based. The following applies: in vivo.
Data set [24] is described as follows: Metabolic stability in rat liver S9 fraction at 1 uM by HPLC. The class given is ADME, subcellular.
Another data set has as its target Coagulation factor X (Homo sapiens, UniProt P00742). The experiment in a line: Inhibition of Factor 10a.
The nature of data set [25]: Metabolic stability in human liver S9 fraction at 1 uM by HPLC. The class given is ADME, subcellular.
The nature of data set [26]: Half life in rat. The class given is ADME, organism-based. The following applies: in vivo.
Data set [27] is described as follows: Clearance in rat. The class given is ADME, organism-based. The following applies: in vivo.
Data set [28] in a line: Oral bioavailability in rat. The class given is ADME, organism-based. The following applies: in vivo.
The nature of data set [29]: AUC in Beagle dog at 2.5 mg/kg, po. The class given is ADME, organism-based, Canis lupus familiaris. Also on record: dose 2.5 mg/kg, route oral. The following applies: plasma.
Data set [30] can be described thus: Volume of distribution in rat at 1 mg/kg, iv and 5 mg/kg, po. The class given is ADME, organism-based. The following applies: in vivo.
The nature of data set [31]: Clearance in cynomolgus monkey at 0.75 mg/kg, iv and 7.5 mg/kg, po. The class given is ADME, organism-based, Macaca fascicularis. The following applies: in vivo.
Data set [32] can be described thus: Oral bioavailability in rat at 5 mg/kg. The class given is ADME, organism-based. The following applies: in vivo.
Data set [33] can be described thus: Oral bioavailability in cynomolgus monkey at 7.5 mg/kg. The class given is ADME, organism-based, Macaca fascicularis. The following applies: in vivo.
Data set [34] in a line: AUC in rat at 5 mg/kg, po. The class given is ADME, organism-based. More on the design: dose 5 mg/kg, route oral. The following applies: plasma.
Data set [35] is described as follows: Half life in cynomolgus monkey at 0.75 mg/kg, iv and 7.5 mg/kg, po. The class given is ADME, organism-based, Macaca fascicularis. The following applies: in vivo.
Data set [36] is described as follows: Clearance in Beagle dog at 0.5 mg/kg, iv and 2.5 mg/kg, po. The class given is ADME, organism-based, Canis lupus familiaris. The following applies: in vivo.
The nature of data set [37]: AUC in cynomolgus monkey at 7.5 mg/kg, po. The following applies: plasma. More on the design: dose 7.5 mg/kg, route oral. The class given is ADME, organism-based, Macaca fascicularis.
Data set [38] in a line: Clearance in rat at 1 mg/kg, iv and 5 mg/kg, po. The class given is ADME, organism-based. The following applies: in vivo.
The nature of data set [39]: Half life in Beagle dog at 0.5 mg/kg, iv and 2.5 mg/kg, po. The class given is ADME, organism-based, Canis lupus familiaris. The following applies: in vivo.
The nature of data set [40]: Volume of distribution in Beagle dog at 0.5 mg/kg, iv and 2.5 mg/kg, po. The class given is ADME, organism-based, Canis lupus familiaris. The following applies: in vivo.
The nature of data set [41]: Half life in rat at 1 mg/kg, iv and 5 mg/kg, po. The class given is ADME, organism-based. The following applies: in vivo.
Data set [42] in a line: Oral bioavailability in Beagle dog at 2.5 mg/kg. The class given is ADME, organism-based, Canis lupus familiaris. The following applies: in vivo.
Data set [43] can be described thus: Volume of distribution in cynomolgus monkey at 0.75 mg/kg, iv and 7.5 mg/kg, po. The class given is ADME, organism-based, Macaca fascicularis. The following applies: in vivo.

Coagulation factor X, sequence (P00742 41-179 limits assumed): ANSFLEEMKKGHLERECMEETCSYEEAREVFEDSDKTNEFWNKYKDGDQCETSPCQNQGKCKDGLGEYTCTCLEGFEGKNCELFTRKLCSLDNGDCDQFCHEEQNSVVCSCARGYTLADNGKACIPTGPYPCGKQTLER
Coagulation factor X, sequence (P00742 235-488 limits assumed): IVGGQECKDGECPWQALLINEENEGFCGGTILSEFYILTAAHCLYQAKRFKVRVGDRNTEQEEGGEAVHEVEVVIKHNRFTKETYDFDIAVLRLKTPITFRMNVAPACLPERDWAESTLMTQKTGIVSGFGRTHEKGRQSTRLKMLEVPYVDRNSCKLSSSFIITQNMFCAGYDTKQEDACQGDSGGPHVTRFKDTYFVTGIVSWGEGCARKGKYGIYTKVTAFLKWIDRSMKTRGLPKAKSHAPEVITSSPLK
Plasminogen, sequence (P00747 97-580 limits assumed): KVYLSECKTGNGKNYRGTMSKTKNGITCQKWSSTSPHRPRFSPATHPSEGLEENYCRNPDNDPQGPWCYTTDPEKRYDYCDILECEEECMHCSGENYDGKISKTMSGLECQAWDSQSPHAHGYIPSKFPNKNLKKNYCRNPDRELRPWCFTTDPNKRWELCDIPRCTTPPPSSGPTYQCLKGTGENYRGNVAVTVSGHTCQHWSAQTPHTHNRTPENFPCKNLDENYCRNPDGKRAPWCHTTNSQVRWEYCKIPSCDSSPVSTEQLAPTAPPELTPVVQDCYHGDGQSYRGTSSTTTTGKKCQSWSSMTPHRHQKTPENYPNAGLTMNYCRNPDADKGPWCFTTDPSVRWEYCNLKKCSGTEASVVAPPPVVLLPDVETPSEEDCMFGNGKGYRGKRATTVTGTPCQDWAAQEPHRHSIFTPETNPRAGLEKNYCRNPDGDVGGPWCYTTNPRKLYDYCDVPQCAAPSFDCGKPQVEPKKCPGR
Plasminogen, sequence (P00747 581-810 limits assumed): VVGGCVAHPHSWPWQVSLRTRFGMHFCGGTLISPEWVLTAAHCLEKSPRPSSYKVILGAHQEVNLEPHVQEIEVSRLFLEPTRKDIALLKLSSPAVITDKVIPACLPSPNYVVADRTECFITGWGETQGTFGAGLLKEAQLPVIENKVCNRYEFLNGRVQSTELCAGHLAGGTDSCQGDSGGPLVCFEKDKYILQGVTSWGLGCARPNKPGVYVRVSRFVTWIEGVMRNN

What is called IC50 is the midpoint of a concentration-inhibition curve. The half-life is how long it takes for the measured level to halve. Broadly, the bioavailability is the share of a dose that reaches the circulation, judged against a reference dose that is usually intravenous. By Ki is commonly meant the dissociation constant of the complex between target and ligand, obtained from inhibition or displacement. The term AUC denotes the area under the concentration-time curve, a measure of exposure. As a reminder, the fraction unbound is the share of the substance not bound to proteins or other matrix. With `CN(C)C(=N)c1ccc(C(=O)Nc2ccc(Cl)cc2C(=O)Nc2ccc(Cl)cn2)cc1`, the half-maximal inhibitory concentration (IC50) against Plasminogen is more than 10 µM; against Prothrombin it was more than 10 µM; in data set [9], more than 10 µM; in [12] it was 0.33 µM; in data set [15] it was more than 10 µM; in data set [19] it was more than 10 µM. This compound also showed an IC50 in data set [21] of 0.51 µM. The half-life in data set [1] was 12.8 h; in data set [10] it was 15.3 h; in data set [18], 19.4 h. Further, the bioavailability in data set [2] was 26.1%; in [4], 73%; in data set [14], 64.9%. Besides, the figures for the Vd in [3], in data set [17] and in [20] were 26.1 L/kg, 36.5 L/kg and 45.7 L/kg, respectively. For the same compound, the clearance amounted to 26.7 mL/min/kg in data set [5], 29.7 mL/min/kg in data set [6] and 34 mL/min/kg in [7]. Moreover, in [8], the inhibition constant (Ki) is 0.11 µM. In addition, the values for the exposure (AUC) in data set [11], in data set [16] and in data set [22] were 320 ng·h/mL, 885 ng·h/mL and 512 ng·h/mL, respectively. For the same compound, the fraction unbound at 0.5 h, 10 µM in data set [13] turned out to be 0.881.

For the compound `CN(C)C(=N)c1ccc(C(=O)Nc2ccccc2C(=O)Nc2ccc(Cl)cn2)cc1`, the bioavailability in data set [23] turned out to be 31%.

As for `CSc1ccc(NC(=O)c2ccc(C(=N)N(C)C)cc2)c(C(=O)Nc2ccc(Cl)cn2)c1`, the half-life at 1 µM in data set [24] and in [25] was more than 2 h each time. For the same compound, on Coagulation factor X, the half-maximal inhibitory concentration (IC50) is less than 0.0005 µM. Also, the half-life in data set [26] was 16.5 h. Also, in data set [27], the clearance was 77.1 mL/min/kg. Moreover, the bioavailability in data set [28] was 26.7%.

As to `C#Cc1ccc(NC(=O)c2cc(Cl)ccc2NC(=O)c2ccc(C(=N)N(C)C)cc2)nc1`, the half-life at 1 µM in data set [24] and in [25] was more than 2 h each time. The midpoint of inhibition against Coagulation factor X, the IC50, lay at 0.0008 µM. In addition, the half-life in [26] is 6.3 h. The clearance in [27] is more than 100 mL/min/kg.

With `COc1ccc(NC(=O)c2ccc(C(=N)N(C)C)cc2F)c(C(=O)Nc2ccc(Cl)cn2)c1`, the values for the AUC in [29], in data set [34] and in data set [37] were 1500 ng·h/mL, 770 ng·h/mL and 6170 ng·h/mL, respectively. For the same compound, the results for the Vd in [30], in data set [40] and in [43] were 26.5 L/kg, 16.8 L/kg and 16.3 L/kg, respectively. Besides, the clearance in data set [31] was found to be 16.2 mL/min/kg; in data set [36], 24.6 mL/min/kg; in data set [38], 57.5 mL/min/kg. For the same compound, the bioavailability in data set [32] was 48.6%; in data set [33], 77.6%; in data set [42], 88.9%. The figures for the concentration for half-maximal inhibition (IC50) (on Coagulation factor X; in [12]; in data set [21]) were 0.0007 µM, 4.2 µM and 7.2 µM, respectively. Besides, the inhibition constant (Ki) is 0.000105 µM on Coagulation factor X and 2.1 µM in [8]. Besides, the half-life was 11.4 h in data set [35], 7.9 h in data set [39] and 5.5 h in data set [41]. The free fraction (fraction unbound) at 0.5 h, 10 µM in [13] is 0.634.

Regarding `COc1ccc(NC(=O)c2ccc(C(=N)N(C)C)cc2)c(C(=O)Nc2ccc(Cl)cn2)c1` [BETRIXABAN], the area under the curve (AUC) in [29] came to 825 ng·h/mL; in [34], 456 ng·h/mL; in data set [37] it was 4180 ng·h/mL. Moreover, the IC50 against Plasminogen was more than 10 µM; on Prothrombin, more than 10 µM; in data set [9], more than 10 µM; in data set [15] it was more than 10 µM; in data set [19], more than 10 µM; in data set [21], 6.3 µM. For the same compound, the Vd was determined as 32.9 L/kg in data set [30], 48.8 L/kg in data set [40] and 13.4 L/kg in [43]. The clearance in data set [31] turned out to be 18.7 mL/min/kg; in [36], 26.5 mL/min/kg; in data set [38], 43.6 mL/min/kg. Also, the bioavailability in [32] was 23.8%; in [33], 58.7%; in data set [42], 51.6%. The results for the half-life in data set [35], in [39] and in [41] were 9.6 h, 21.2 h and 8.8 h, respectively. This compound also had an unbound share (fraction unbound) at 0.5 h, 10 µM in [13] of 0.8.
